Test results: patent US20220187282A1, “CARDIOMYOCYTE PROLIFERATION” (The Council of the Queensland Institute of Medical Research, priority 2019, published 2022)
Like-named read-outs stand apart in the source and are kept apart here.

Key:
Type in all cases: biochemical
kinases [1] = biological target: kinases (Homo sapiens, UniProt Q14004); conditions: Test Conc(μM) 1
kinases [2] = biological target: kinases (Homo sapiens, UniProt P42681); conditions: TXK FRET-Z-Lyte SP; Test Conc(μM):ATP Conc(μM) 1:100
kinases [3] = biological target: kinases (Homo sapiens, UniProt Q9UBF8); conditions: PI4KB FRET-Adapta SP; Test Conc(μM):ATP Conc(μM) 1:5
kinases [4] = biological target: kinases (Homo sapiens, UniProt Q9HBH9); conditions: MKNK2 (MNK2) FRET-Lantha SP; Test Conc(μM) 1
kinases [5] = biological target: kinases (Homo sapiens, UniProt Q02156); conditions: PRKCE (PKC epsilon) Z-Lyte SP; Test Conc(μM):ATP Conc(μM) 1:25
Sequence of kinases (Homo sapiens, UniProt Q02156) (Q02156 whole entry): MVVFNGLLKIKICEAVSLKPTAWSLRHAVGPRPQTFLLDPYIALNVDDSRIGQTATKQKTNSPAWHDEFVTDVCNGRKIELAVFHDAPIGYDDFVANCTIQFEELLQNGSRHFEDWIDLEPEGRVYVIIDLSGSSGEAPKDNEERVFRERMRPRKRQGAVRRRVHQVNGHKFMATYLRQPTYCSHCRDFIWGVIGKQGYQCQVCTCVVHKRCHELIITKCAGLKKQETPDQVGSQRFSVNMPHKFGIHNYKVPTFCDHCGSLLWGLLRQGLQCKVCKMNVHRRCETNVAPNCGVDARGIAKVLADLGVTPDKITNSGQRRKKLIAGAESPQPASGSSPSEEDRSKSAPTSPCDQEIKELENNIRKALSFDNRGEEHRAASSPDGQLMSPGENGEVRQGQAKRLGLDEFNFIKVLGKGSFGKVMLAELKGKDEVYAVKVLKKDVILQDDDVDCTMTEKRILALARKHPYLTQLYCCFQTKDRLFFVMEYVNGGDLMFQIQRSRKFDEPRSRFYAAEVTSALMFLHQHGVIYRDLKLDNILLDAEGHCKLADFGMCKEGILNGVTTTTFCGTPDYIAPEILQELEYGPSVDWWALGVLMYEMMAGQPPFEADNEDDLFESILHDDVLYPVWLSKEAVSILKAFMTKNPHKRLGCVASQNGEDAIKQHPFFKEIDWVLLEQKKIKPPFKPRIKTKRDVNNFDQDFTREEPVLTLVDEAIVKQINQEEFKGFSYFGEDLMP

kinases [6] = biological target: kinases (Homo sapiens, UniProt Q9BYT3); conditions: STK33 FRET-Lantha SP; Test Conc(μM) 1
kinases [7] = biological target: kinases (Homo sapiens, UniProt P57059); conditions: SIK1 FRET-Lantha SP; Test Conc(μM) 1
kinases [8] = biological target: kinases (Homo sapiens, UniProt Q56UN5); conditions: MAP3K19 (YSK4) FRET-Z-Lyte SP; Test Conc(μM):ATP Conc(μM) 1:5
kinases [9] = biological target: kinases (Homo sapiens, UniProt P36507)
Sequence of kinases (Homo sapiens, UniProt P36507) (P36507 whole entry): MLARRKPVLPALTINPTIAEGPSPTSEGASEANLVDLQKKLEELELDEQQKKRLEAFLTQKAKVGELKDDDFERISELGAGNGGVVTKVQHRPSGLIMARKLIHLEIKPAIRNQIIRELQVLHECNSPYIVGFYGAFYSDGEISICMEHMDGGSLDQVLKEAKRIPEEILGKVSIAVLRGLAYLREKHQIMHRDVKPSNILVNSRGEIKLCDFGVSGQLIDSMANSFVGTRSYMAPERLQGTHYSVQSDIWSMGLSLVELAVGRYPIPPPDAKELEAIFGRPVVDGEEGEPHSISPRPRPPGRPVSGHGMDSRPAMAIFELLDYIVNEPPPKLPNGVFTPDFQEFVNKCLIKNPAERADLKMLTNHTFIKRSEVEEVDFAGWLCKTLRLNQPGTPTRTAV

kinases [10] = biological target: kinases (Homo sapiens, UniProt P49759); conditions: CLK1 FRET-Z-Lyte SP; Test Conc(μM):ATP Conc(μM) 1:25
kinases [11] = biological target: kinases (Homo sapiens, UniProt P51617); conditions: IRAK1 FRET-Adapta SP; Test Conc(μM):ATP Conc(μM) 1:25
Sequence of kinases (Homo sapiens, UniProt P51617) (P51617 whole entry): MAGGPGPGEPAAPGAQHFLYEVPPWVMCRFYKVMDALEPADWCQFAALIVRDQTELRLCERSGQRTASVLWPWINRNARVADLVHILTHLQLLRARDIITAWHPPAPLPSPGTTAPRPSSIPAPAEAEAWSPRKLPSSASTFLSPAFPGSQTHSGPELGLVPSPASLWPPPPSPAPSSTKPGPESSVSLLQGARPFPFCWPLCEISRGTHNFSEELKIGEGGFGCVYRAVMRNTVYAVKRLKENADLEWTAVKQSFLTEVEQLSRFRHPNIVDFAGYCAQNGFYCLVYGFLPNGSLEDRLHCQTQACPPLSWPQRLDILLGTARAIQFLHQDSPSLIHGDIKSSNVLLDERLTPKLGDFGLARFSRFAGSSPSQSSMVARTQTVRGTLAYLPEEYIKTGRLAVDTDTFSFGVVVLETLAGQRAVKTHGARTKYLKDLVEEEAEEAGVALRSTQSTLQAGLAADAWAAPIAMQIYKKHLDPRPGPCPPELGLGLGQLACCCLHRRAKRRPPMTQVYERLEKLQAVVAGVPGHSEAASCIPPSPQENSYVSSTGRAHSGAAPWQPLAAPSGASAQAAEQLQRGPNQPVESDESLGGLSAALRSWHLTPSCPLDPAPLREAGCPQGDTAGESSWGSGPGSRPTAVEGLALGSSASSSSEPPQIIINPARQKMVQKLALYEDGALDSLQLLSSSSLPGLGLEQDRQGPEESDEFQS

kinases [12] = biological target: kinases (Homo sapiens, UniProt Q6VAB6); conditions: KSR2 FRET-Z-Lyte SP; Test Conc(μM):ATP Conc(μM) 1:10
kinases [13] = biological target: kinases (Homo sapiens, UniProt Q04912); conditions: MST1R (RON) FRET-Z-Lyte SP; Test Conc(μM):ATP Conc(μM) 1:10
kinases [14] = biological target: kinases (Homo sapiens, UniProt Q9UEE5); conditions: STK17A (DRAK1) FRET-Lantha SP; Test Conc(μM) 1
kinases [15] = biological target: kinases (Homo sapiens, UniProt P07947); conditions: YES1 FRET-Z-Lyte SP; Test Conc(μM):ATP Conc(μM) 1:25
kinases [16] = biological target: kinases (Homo sapiens, UniProt Q13882); conditions: PTK6 (Brk) *Mn* FRET-Z-Lyte SP; Test Conc(μM):ATP Conc(μM) 1:75
kinases [17] = biological target: kinases (Homo sapiens, UniProt P05129); conditions: PRKCG (PKC gamma) Z-Lyte SP; Test Conc(μM):ATP Conc(μM) 1:25
kinases [18] = biological target: kinases (Homo sapiens, UniProt P45985); conditions: MAP2K4 (MEK4) FRET-Lantha SP; Test Conc(μM) 1
Sequence of kinases (Homo sapiens, UniProt P45985) (P45985 whole entry): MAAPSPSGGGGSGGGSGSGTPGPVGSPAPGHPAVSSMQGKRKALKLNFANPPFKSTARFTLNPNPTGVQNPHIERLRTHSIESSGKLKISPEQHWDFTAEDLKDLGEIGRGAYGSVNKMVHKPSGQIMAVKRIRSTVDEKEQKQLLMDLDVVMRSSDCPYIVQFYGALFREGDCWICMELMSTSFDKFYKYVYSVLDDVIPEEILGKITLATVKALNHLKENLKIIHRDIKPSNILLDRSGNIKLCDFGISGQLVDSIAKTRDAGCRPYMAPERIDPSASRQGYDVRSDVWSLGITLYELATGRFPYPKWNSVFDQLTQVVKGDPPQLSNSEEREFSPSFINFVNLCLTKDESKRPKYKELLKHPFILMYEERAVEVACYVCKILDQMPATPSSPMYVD

kinases [19] = biological target: kinases (Homo sapiens, UniProt Q9Y5S2); conditions: CDC42 BPB (MRCKB) Z-Lyte SP; Test Conc(μM):ATP Conc(μM) 1:5
kinases [20] = biological target: kinases (Homo sapiens, UniProt O00311); conditions: CDC7/DBF4 FRET-Lantha SP; Test Conc(μM) 1
kinases [21] = biological target: kinases (Homo sapiens, UniProt P36896); conditions: ACVR1B (ALK4) *Mn* Z-Lyte SP; Test Conc(μM):ATP Conc(μM) 1:5
kinases [22] = biological target: kinases (Homo sapiens, UniProt Q8TD08); conditions: MAPK15 (ERK7) FRET-Lantha SP; Test Conc(μM) 1
Sequence of kinases (Homo sapiens, UniProt Q8TD08) (Q8TD08 whole entry): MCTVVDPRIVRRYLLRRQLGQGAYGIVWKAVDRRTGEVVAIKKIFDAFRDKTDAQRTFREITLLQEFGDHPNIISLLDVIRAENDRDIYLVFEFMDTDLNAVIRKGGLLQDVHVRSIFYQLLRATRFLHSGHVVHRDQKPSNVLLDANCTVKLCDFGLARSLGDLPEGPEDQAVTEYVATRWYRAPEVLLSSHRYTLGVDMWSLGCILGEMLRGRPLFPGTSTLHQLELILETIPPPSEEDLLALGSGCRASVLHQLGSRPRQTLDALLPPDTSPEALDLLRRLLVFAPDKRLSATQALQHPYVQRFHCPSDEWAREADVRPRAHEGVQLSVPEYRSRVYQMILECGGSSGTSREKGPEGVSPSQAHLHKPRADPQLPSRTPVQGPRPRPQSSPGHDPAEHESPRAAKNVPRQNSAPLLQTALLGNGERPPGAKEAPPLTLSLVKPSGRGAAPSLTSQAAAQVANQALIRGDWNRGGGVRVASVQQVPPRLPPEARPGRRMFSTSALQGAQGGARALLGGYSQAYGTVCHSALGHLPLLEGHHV

kinases [23] = biological target: kinases (Homo sapiens, UniProt O15075); conditions: DCAMKL1 (DCLK1) FRET-Z-Lyte SP
kinases [24] = biological target: kinases (Homo sapiens, UniProt P41240); conditions: CSK FRET-Z-Lyte SP; Test Conc(μM):ATP Conc(μM) 1:10
kinases [25] = biological target: kinases (Homo sapiens, UniProt O14986); conditions: Test Conc(μM):ATP Conc(μM) 1:10
Sequence of kinases (Homo sapiens, UniProt O14986) (O14986 whole entry): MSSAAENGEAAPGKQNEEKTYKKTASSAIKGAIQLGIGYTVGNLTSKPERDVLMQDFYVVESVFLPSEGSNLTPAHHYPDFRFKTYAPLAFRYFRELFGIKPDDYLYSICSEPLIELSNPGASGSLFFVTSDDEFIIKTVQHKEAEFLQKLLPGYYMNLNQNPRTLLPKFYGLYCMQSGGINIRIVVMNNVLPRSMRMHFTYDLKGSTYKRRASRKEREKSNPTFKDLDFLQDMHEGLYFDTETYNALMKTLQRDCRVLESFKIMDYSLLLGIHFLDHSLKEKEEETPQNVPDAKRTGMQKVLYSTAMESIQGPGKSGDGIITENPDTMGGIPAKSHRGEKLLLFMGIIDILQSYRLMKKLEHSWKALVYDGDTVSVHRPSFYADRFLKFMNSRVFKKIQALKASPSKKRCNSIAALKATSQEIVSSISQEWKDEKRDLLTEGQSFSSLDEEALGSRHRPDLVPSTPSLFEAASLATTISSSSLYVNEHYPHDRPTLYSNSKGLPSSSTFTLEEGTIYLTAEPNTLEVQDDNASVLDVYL

kinases [26] = biological target: kinases (Homo sapiens, UniProt Q9NRM7); conditions: LATS2 FRET-Lantha SP; Test Conc(μM) 1
kinases [27] = biological target: kinases (Homo sapiens, UniProt P57058); conditions: HUNK FRET-Lantha SP; Test Conc(μM) 1
kinases [28] = biological target: kinases (Homo sapiens, UniProt P36888); conditions: FLT3 Hu Phos FRET-Z-Lyte SP; Test Conc(μM):ATP Conc(μM) 1:500
[29] = MAP2K2 (MEK2) FRET-Lantha SP, Test Conc(μM) 1
[30] = MAP2K2 (MEK2)Cascade Z-Lyte SP, Test Conc(μM):ATP Conc(μM) 1:100

Sequence of kinases (Homo sapiens, UniProt Q14004) (Q14004 whole entry): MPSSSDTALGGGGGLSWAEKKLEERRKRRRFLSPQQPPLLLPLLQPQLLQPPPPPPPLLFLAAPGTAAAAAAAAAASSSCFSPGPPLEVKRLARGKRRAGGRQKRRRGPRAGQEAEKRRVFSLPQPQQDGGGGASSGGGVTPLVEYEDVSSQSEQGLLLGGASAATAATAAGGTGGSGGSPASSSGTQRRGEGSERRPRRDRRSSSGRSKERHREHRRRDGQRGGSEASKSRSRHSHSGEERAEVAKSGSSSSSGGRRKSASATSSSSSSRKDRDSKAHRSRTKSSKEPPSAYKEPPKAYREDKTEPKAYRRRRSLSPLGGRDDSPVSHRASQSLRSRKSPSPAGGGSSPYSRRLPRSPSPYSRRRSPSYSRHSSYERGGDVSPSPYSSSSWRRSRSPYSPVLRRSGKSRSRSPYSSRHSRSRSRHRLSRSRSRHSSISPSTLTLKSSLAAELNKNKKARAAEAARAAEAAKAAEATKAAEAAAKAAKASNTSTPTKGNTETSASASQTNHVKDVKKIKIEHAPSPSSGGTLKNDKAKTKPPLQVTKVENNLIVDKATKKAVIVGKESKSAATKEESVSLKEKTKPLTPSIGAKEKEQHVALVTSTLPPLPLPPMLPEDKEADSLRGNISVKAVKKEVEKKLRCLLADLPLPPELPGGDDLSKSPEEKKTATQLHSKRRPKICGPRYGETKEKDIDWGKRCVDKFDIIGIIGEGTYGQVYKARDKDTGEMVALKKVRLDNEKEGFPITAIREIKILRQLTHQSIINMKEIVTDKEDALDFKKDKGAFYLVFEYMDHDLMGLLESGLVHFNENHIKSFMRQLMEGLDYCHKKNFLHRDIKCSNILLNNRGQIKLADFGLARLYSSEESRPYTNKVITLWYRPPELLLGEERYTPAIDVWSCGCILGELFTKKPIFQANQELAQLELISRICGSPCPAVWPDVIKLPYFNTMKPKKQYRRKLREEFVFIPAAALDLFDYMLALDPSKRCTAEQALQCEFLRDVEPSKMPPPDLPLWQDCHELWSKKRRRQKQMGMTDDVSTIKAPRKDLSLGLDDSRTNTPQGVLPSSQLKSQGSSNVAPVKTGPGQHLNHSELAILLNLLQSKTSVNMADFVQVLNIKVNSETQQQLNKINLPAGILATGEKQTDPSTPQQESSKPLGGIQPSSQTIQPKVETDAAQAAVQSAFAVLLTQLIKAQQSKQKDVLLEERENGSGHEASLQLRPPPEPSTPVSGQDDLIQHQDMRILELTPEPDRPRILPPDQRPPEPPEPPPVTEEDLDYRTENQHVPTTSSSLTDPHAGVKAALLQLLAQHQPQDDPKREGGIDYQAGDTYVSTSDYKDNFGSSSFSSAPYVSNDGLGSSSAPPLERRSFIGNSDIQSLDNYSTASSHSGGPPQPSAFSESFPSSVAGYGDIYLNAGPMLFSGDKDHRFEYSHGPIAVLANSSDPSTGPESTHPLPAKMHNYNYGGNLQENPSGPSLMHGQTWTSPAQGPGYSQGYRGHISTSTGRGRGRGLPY

Row | Compound | Mean Inhib (%) (kinases [2]) | Mean Inhib (%) (kinases [3]) | Mean Inhib (%) (kinases [4]) | Mean Inhib (%) (kinases [5]) | Mean Inhib (%) (kinases [6]) | Mean Inhib (%) (kinases [7]) | Mean Inhib (%) (kinases [8]) | Mean Inhib (%) (kinases [9]; [29]) | Mean Inhib (%) (kinases [9]; [30]) | Mean Inhib (%) (kinases [10]) | Mean Inhib (%) (kinases [11]) | Mean Inhib (%) (kinases [12]) | Mean Inhib (%) (kinases [13]) | Mean Inhib (%) (kinases [14]) | Mean Inhib (%) (kinases [15]) | Mean Inhib (%) (kinases [16]) | Mean Inhib (%) (kinases [17]) | Mean Inhib (%) (kinases [18]) | Mean Inhib (%) (kinases [19]) | Mean Inhib (%) (kinases [20]) | other results
1 | Cc1ccc(NC(=O)c2ccnc(N3CCOCC3)c2)cc1Nc1ccnc(N2CC(C)OC(C)C2)n1 (stereo not shown) [compound 3] | 5.1% | −9.0% | 2.2% | 12.2% | 1.7% | −0.5% | −1.6% | 1.7% | −1.0% | 5.3% | 11.2% | 3.9% | −8.2% | 4.6% | 5.8% | 3.5% | 20.4% | −9.5% | −7.0% | 4.9% | Mean Inhib (%) (kinases [1]; CDK13 Cyclin K FRET-Lantha SP): 5.4%; Mean Inhib (%) (kinases [21]): 6.8%; Mean Inhib (%) (kinases [22]): 0.8%; Mean Inhib (%) (kinases [23]; Test Conc(μM):ATP Conc(μM) 1:300): 31.0%; Mean Inhib (%) (kinases [24]): 10.1%; Mean Inhib (%) (kinases [25]; PIP5K1B FRET-Adapta SP): 4.5%; Mean Inhib (%) (kinases [26]): 0.5%; Mean Inhib (%) (kinases [27]): 5.7%; Mean Inhib (%) (kinases [28]): −9.3%
2 | Cc1cc(Oc2ccnc(Nc3ccc(S(N)(=O)=O)cc3)c2)c(-c2ccccn2)nc1C [compound 65] | 44.8% | 0.5% | 2.7% | 10.0% | −6.6% | 1.8% | −3.1% | −0.2% | 10.4% | 5.8% | 5.1% | 1.6% | 5.3% | −1.2% | 56.6% | 32.3% | −13.8% | 14.1% | −5.0% | 0.9% | CDK13 Cyclin K FRET-Lantha SP Mean Mean Inhib (%) (kinases [1]; CDK13 Cyclin K): 4.1%; Mean Inhib (%) (kinases [21]): 97.8%; Mean Inhib (%) (kinases [22]): 1.5%; Mean Inhib (%) (kinases [23]; Test Conc(μM):ATP Conc(μM) 0.25): 11.8%; Mean Inhib (%) (kinases [24]): 6.4%; PIP5K1B FRET-Adapta SP Mean Mean Inhib (%) (kinases [25]; PIP5K1B): 2.1%; Mean Inhib (%) (kinases [26]): 4.9%; Mean Inhib (%) (kinases [27]): 11.5%; Mean Inhib (%) (kinases [28]): 8.9%
